Data: patent US12115222B2, “Compositions and methods for improving the solubility of erectile dysfunction therapeutics” (Villya LLC, priority 2023, dated 2024)
Several values for one entry are separate records, joined by “and”; a condition that tells them apart may be missing. Equal entries are not always repeated. Where two headings read alike, the source gives them in different places. One block for each compound: values may come before it.

How the values were obtained:
[1] = From the text: After solubilizing the sugar and the compound in ethanol or aqueous ethanol, the ethanol is evaporated for example under a high rotary vacuum. The powder resulting from the evaporation step is then resolubilized (dissolved) in water. Another solvent can be methanol at 80% methanol, 95% (ACS grade) or greater (to 100% methanol) as well as combinations of methanol and ethanol or methanol and water. After solubilizing the sugar and the compound in ethanol or aqueous ethanol, the ethanol is evaporated for example under a high rotary vacuum. The powder resulting from the evaporation step is then resolubilized (dissolved) in water.
Generally, ingredients are deposited into a sealed container with ethanol and vortex-mixed to form a solution. The solution is subjected to centrifugation. The ethanol is evaporated off and the dried mixture was dissolved in water. This mixture is centrifuged again and the supernatant is filtered through a membrane. […] In one embodiment, the admixing process involves dissolving the PSD and sugar in the ethanol while stirring and adjusting the pH as necessary to obtain complete dissolution and a clear reaction mixture. The reaction mixture can then be dried to remove the ethanol. No further water washing or filtering is needed.
In this example, an oven-dried single-neck RB flask equipped with a magnetic stir bar was used. […] The reaction mixture was vigorously stirred at room temperature for 30 min at 20° C. […] The white solid was dried using vacuum drying performed at room temperature and a high vacuum pump for about one hour to remove the ethanol (EtOH) completely using an Edvards Model #RV8 […], a Heidolph type Basis Hei-VAP Value, No. 560-00000-0101. The high vacuum pump was connected to a cooling trap and the trap was connected to the RB flask. Vacuum strength was about 1 mm Hg.
The white foamy solid was dried over a high vacuum at room temperature for an additional hour to remove the water completely, by ascertaining changes in weight loss. Drying continued until further weight loss was not observed.
Step 1: In an oven-dried single neck RB flask equipped with magnetic stir and septa (flask cap), 5 mg sildenafil (0.01054 mmol) and 16.95 mg stevioside (1:2 molar ratio) were weighed into the RB flask and dissolved in 85% ethanol (˜2.0 mL, denatured 85% ethanol) at ambient temperature. The reaction mixture was vigorously stirred at room temperature for 30 min. […] The white solid was dried over a high vacuum for an hour to remove the ethanol completely (no further reduction in weight was observed).
Step 2: The obtained white solid was then dissolved in 2.0 mL water at room temperature in an RB flask with a magnetic stir bar. The reaction mixture was stirred at ambient temperature for 30 min. […] The white foamy solid was dried over a high vacuum at room temperature for an additional hour to remove the water completely. The weight of the flask was checked while drying until no further weight loss was observed.

[2] = Stability of the dissolved complex on standing (precipitate); assay type: physicochemical
Procedure: […] […] The clear solution was then dried as described in Step 2 in Example 8. The 10 mg dried solid was then dissolved in 0.6 mL D20.
For NMR, 10 mg of the solid sample obtained was dissolved in 0.6 mL D20. The dissolved 10 mg sample again produced a clear and homogeneous solution. […] The complex in D20 remained stable for 9 days without any observable precipitate forming.

[3] = Non-caloric sugar solubility in water and 95% ethanol
Procedure: In this experiment, the following sugars were compared for solubility: rubusoside, dulcoside A, rebaudioside B, dulcoside B, and rebaudioside D. Approximately 5.0 mg of each sugar was attempted to be dissolved in 0.6 mL water and vortexed for 2 minutes at room temperature.
In another experiment, 50 mg stevia was dissolved in either 2.0 mL water or 2.0 mL 95% ethanol.

[4] = cited from earlier work
[5] = tested on: S. mansoni newly transformed schistosomula (NTS)
[6] = drug alone; cited from earlier work
[7] = approximately 5.0 mg in 0.6 mL water, vortexed 2 minutes, room temperature

Compound: O=C(C1CCCCC1)N1CC(=O)N2CCc3ccccc3C2C1 (centres unmarked) [Praziquantel]
- solubility by 1H-NMR [1]: 0.65
- solubility by 1H-NMR analysis [1]: 0.89
- solubility for the drug by 1H-NMR analysis [1]: 1.73
- solubility in 95% ethanol with Dulcoside A [1]: insoluble
- solubility in 95% ethanol with rebaudioside B [1]: insoluble
- solubility in 95% ethanol with rebaudioside D [1]: insoluble
- solubility in water by NMR [1]: only partial solubility
- solubility in water in complex with dulcoside B [1]: well soluble
- solubility in water with D-fructose (NMR) [1]: did not make praziquantel soluble or more soluble
- solubility in water with rebaudioside D [1]: insoluble
- time until the water solution became white and turbid ([2]; Example 16, praziquantel:rubusoside 1:2 molar, 0.1 N HCl, pH ~4.7): 15 min
- 24 hr Exposure LD50 ([5]; 24 hr exposure): 33.5 ± 5.71 µM
- 72 hr exposure LD50 ([5]; 72 hr exposure (table)): 24.3 ± 0.67 µM
- LD50 ([5]; exposure after 72 hours): 33.9 ± 0.64 µM
- Solubility of Praziquantel In Ethanol (95%), without sugar [6]: 9.7 g/100 mL
- Solubility of Praziquantel In Water, without sugar [6]: 0.04 g/100 mL

Compound: CCCCCCCCCCCCO[C@@H]1O[C@H](CO)[C@@H](O[C@H]2O[C@H](CO)[C@@H](O)[C@H](O)[C@H]2O)[C@H](O)[C@H]1O [n-Dodecyl-β-D-maltoside]
- solubility of the sugar in 95% ethanol (observation) ([3]; 50 mg in 2.0 mL 95% ethanol): soluble
- solubility of the sugar in water (observation) ([3]; 50 mg in 2.0 mL water): soluble
- Sugar Solubility in 95% EtOH [4]: Soluble
- Sugar Solubility in Water [4]: 50 mg/mL

Compound: C=C1C[C@@]23CC[C@H]4[C@@](C)(CCC[C@@]4(C)C(=O)O[C@@H]4O[C@H](CO)[C@@H](O)[C@H](O)[C@H]4O)[C@@H]2CC[C@]1(O[C@@H]1O[C@H](CO)[C@@H](O)[C@H](O)[C@H]1O)C3 [Rubusoside]
- solubility of the sugar in water (observation) [3, 7]: No undissolved
- Sugar Solubility in 95% EtOH [4]: 10000 µg/mL
- Sugar Solubility in Water [4]: Soluble

Second part, led by results:

- solubility in water by 1H-NMR [1]: 100%
- solubility in water by NMR ([1]; 30 min): 100%
- time remained in solution in D2O ([2]; Example 14, 1:3 molar with citric acid): 3 days
Compound: CCCc1nn(C)c2c(=O)[nH]c(-c3cc(S(=O)(=O)N4CCN(C)CC4)ccc3OCC)nc12 [Sildenafil, 5-[2-ethoxy-5-(4-methylpiperazin-1-yl)sulfonylphenyl]-1-methyl-3-propyl-6H-pyrazolo[4,3-d]pyrimidin-7-one]

- solubility of the sugar in water (observation) [3, 7]: partially soluble
Compound: C=C1C[C@@]23CC[C@H]4[C@@](C)(CCC[C@@]4(C)C(=O)O[C@@H]4O[C@H](CO)[C@@H](O)[C@H](O)[C@H]4O)[C@@H]2CC[C@]1(O[C@@H]1O[C@H](CO)[C@@H](O)[C@H](O[C@@H]2O[C@H](CO)[C@@H](O)[C@H](O)[C@H]2O)[C@H]1O[C@@H]1O[C@@H](C)[C@H](O)[C@@H](O)[C@H]1O)C3 [dulcoside B]
- Sugar Solubility in 95% EtOH [4]: Slightly soluble
- Sugar Solubility in Water [4]: Partly soluble

- solubility of the sugar in water (observation) [3, 7]: partially soluble
Compound: C=C1C[C@@]23CC[C@H]4[C@@](C)(CCC[C@@]4(C)C(=O)O[C@@H]4O[C@H](CO)[C@@H](O)[C@H](O)[C@H]4O[C@@H]4O[C@H](CO)[C@@H](O)[C@H](O)[C@H]4O)[C@@H]2CC[C@]1(O[C@@H]1O[C@H](CO)[C@@H](O)[C@H](O[C@@H]2O[C@H](CO)[C@@H](O)[C@H](O)[C@H]2O)[C@H]1O[C@@H]1O[C@H](CO)[C@@H](O)[C@H](O)[C@H]1O)C3 [rebaudioside D]
- Sugar Solubility in 95% EtOH [4]: Insoluble
- Sugar Solubility in Water [4]: 100 mg/ml and 88.56 mM

- solubility of the sugar in water (observation) [3, 7]: partially soluble
Compound: dulcoside A
- Sugar Solubility in 95% EtOH [4]: Partly soluble
- Sugar Solubility in Water [4]: 2.28 mg/mL
